Source: patent US20250032569A1, “COMPOSITION, IN PARTICULAR COSMETIC FORMULATION, COMPRISING A VERBASCOSIDE EXTRACT” (MEDENA AG, priority 2021, published 2025)

What was measured:
[1] = organic (synthetic) chemical sunscreens, Table 1; cited from earlier work
[2] = In vitro spectrophotometric SPF calculated by the Sayre equation (Eq. 1); format: physicochemical
Description: Each sample (1 ml) was placed in a 1 cm quartz cell. The absorbance was measured between 250-600 nm at an interval of every 1 nm using a Varian UV/Vis spectrophotometer (Cary 50 Scan). The following parameters were measured and calculated for each sample assuming standard application to the skin—2 mg/cm^2: • the SPF values. • the critical wavelength λC • the UVA/UVB ratio 1. […]
Each sample (1 ml) was placed in a 1 cm quartz cell. The absorbance was measured between 250-600 nm at an interval of every 1 nm using a Varian UV/Vis spectrophotometer (Cary 50 Scan). The following parameters were measured and calculated for each sample assuming standard application to the skin—2 mg/cm^2: • the SPF values. • the critical wavelength λC • the UVA/UVB ratio
The SPF values in vitro were calculated according to the method described by Sayre et al., (Sayre, R M; Agin, P P; LeVee, G J; Marlowe, E. A comparison of in vivo and in vitro testing of sunscreening formulas, Photochem. Photobiol. 1979, 29, 559-566). The calculation was done using Equation 1: […]
where Ss(λ) is the spectral irradiance, Ser(λ) is the CIE erythema action spectrum and T(λ) is the transmission of the sunscreen. The values of Ss(λ) and Ser(λ) were taken from the literature (B. L. Diffey, J. Robson. A new substrate to measure sunscreen protection factors throughout the ultraviolet spectrum, J. Soc. Cosmet. Chem. 1989, 40, 127-133). […]
SPF values were calculated using Eq. 1 for sun protective cosmetics applied at 2 mg/cm^2 (standard application).
The same methods and equations as in the case of plant extracts were applied.
Solutions of sunscreens at concentrations 0.001% were prepared in duplicate and UV-visible absorption spectra were recorded over the range of 250-600 nm (FIG. 1). On the basis of these spectra, the transmission of the sunscreen (T) was found from monochromatic absorbance values at wavelength λ: T=10^−A(λ).
The SPF in vitro was calculated according to the method described by Sayre et al., (Sayre, R M; Agin, P P; LeVee, G J; Marlowe, E. A comparison of in vivo and in vitro testing of sunscreening formulas, Photochem. Photobiol. 1979, 29, 559-566) following equation 1: […]
where Ss(λ) is the spectral irradiance, Ser(λ) the CIE erythema action spectrum and T(λ) the trans-mission of the sunscreen. Data for Ss(λ) and Ser(λ) are available in the literature (B. L. Diffey, J. Robson. A new substrate to measure sunscreen protection factors throughout the ultraviolet spectrum, J. Soc. Cosmet. Chem. 1989, 40, 127-133).
The SPF values were calculated using Eq 1 with the application conditions 2 mg/cm^2 (Standard application recommended by the European Agency).
The SPF value for lotions were calculated using Eq. 1 for three application conditions at 2 mg/cm^2 (standard application), 2.5 mg/cm^2 and 3 mg/cm^2. In the same Table 22, critical wavelength and the UVA/UVB ratios are shown.

[3] = UVA/UVB ratio from absorption spectra (Eq. 3) and Boots UVA Star Rating; format: physicochemical
Description: Critical Wavelength (λC) and the UVA/UVB ratios were also calculated from the absorption spectra and were collected in Table 2. […] According to these International indications, aqueous solutions of Haberlea rhodopensis with different concentrations of myconoside can be attributed to the group of good protection (2 UVA Star Rating).
In order to further characterize solutions as skin photo-protectors from UVA, the UVA/UVB ratio was calculated using Eq. 3: […]
In order to characterize the ability of creams to protect skin against UVA the UVA/UVB ratio was calculated using Eq. 3: […]

[4] = SPF calculated by modified Sayre method; format: physicochemical
Source text: In the following Table 20, there are SPF values obtained in vitro spectrophotometrically, which have been calculated by a classical Sayre method (Sayre, R M; Agin, P P; LeVee, G J; Marlowe, E. A comparison of in vivo and in vitro testing of sunscreening formulas, Photochem. Photobiol. 1979, 29, 559-566) and modified Sayre method, which gives results similar to those obtained in the in vivo tests recommended by COLIPA.
• (1) For water insoluble chemical filters, the modified Sayre method gives results close to those calculated by Simulator-Calculator (BASF) and the in vivo tests. The Simulator-Calculator uses the modified Sayre method assuming an exponentiation equal to 0.827 (X^0.827). • (2) For water soluble natural filters, the same modified Sayre method would give results close to those obtained by the in vivo tests (predicted by Simulator-Calculator). Examples of Cosmetic Compositions with Fully Natural Sun Protective Factors • 1. Sun protective lotion SPF 50+, high UV-A protection • 2. Sun protective cream SPF 50+, high UV-A protection • 3. Sun protective serum for pregnant and milking women SPF 50+, high UV-A protection • 4. Sun protective milk for babies SPF 50+, high UV-A protection • 5. Sun protective lotion SPF 20-30, high UV-A protection for people with highly sensitive skin E. Analysis of Sun Protective Parameters of Two Lotions and Cream Containing Lippia citriodora Extract with 40% of Verbascoside.

[5] = Critical wavelength (λC) from absorption spectra (Eq. 2); format: physicochemical; conditions: for critical wavelength: chemical sunscreen, no concentration stated
Description: The Critical Wavelength λC is the wavelength, where the area under the absorbance spectrum for the irradiated product from 290 nm to λC is equal to 90% of the integral value of the absorbance spectrum from 290 to 400 nm and was calculated using Eq. 2:
where A (λ)=monochromatic absorbance values at wavelength λ. The critical wavelength was determined for all samples in order to assess a degree of UVA protection. In cases where the critical wavelength is lower than 370 nm, the protection from UVA is less evident.
The Critical Wavelength λC value for the test product was defined as that wavelength where the area under the absorbance spectrum of the sample from 290 nm to λC is 90% of the integral of the absorbance spectrum from 290 to 400 nm and is calculated using Eq. 2:
[formula] • A(λ)=monochromatic absorbance values at wavelength λ

[6] = Photo-stability under solar imitating UVA+UVB irradiation; format: physicochemical; conditions: absorption spectra without and after up to 40 min irradiation
[7] = UV filter 0.5% in sun protective cosmetic (Table 20)
[8] = UV filter 1.0% in sun protective cosmetic (Table 20)
[9] = UV filter 2.5% in sun protective cosmetic (Table 20)
[10] = UV filter 5% in sun protective cosmetic (Table 20)
[11] = chemical UV filter 0.5% in sun protective solution (Tables 12-19)
[12] = chemical UV filter 1% in sun protective solution (Tables 12-19)
[13] = chemical UV filter 2.5% in sun protective solution (Tables 12-19)
[14] = chemical UV filter 5% in sun protective solution (Tables 12-19)
[15] = chemical UV filter 0.5% in sun protective solution
[16] = chemical UV filter 1% in sun protective solution
[17] = chemical UV filter 2.5% in sun protective solution
[18] = chemical UV filter 5% in sun protective solution
[19] = chemical UV filter 10% in sun protective solution
[20] = UV filter 0.5% in sun protective cosmetic
[21] = UV filter 1.0% in sun protective cosmetic
[22] = UV filter 2.5% in sun protective cosmetic
[23] = UV filter 5% in sun protective cosmetic

## CC1(C)C2CCC1(CS(=O)(=O)O)C(=O)C2=Cc1ccc(C=C2C(=O)C3(CS(=O)(=O)O)CCC2C3(C)C)cc1 [Mexoryl SX]
[1]
  Absorbs UV-A: UV-A

## Cc1cc(CC(C)C[Si](C)(O[Si](C)(C)C)O[Si](C)(C)C)c(O)c(-n2nc3ccccc3n2)c1 (stereo not shown) [Mexoryl XL]
[1]
  Absorbs UV-A: UV-A
  Absorbs UV-B: UV-B

## O=S(=O)([O-])c1cc(S(=O)(=O)O)cc2[nH]c(-c3ccc(-c4nc5c(S(=O)(=O)[O-])cc(S(=O)(=O)O)cc5[nH]4)cc3)nc12.[Na+].[Na+] [Neoheliopan AP]
[1]
  Absorbs UV-A: UV-A

## CC(C)(C)CC(C)(C)c1cc(Cc2cc(C(C)(C)CC(C)(C)C)cc(-n3nc4ccccc4n3)c2O)c(O)c(-n2nc3ccccc3n2)c1 [Tinosorb M]
[1]
  Absorbs UV-B: UV-B

## CCCCC(CC)COc1ccc(-c2nc(-c3ccc(OC)cc3)nc(-c3ccc(OCC(CC)CCCC)cc3O)n2)c(O)c1 (stereo not shown) [Tinosorb S]
[1]
  Absorbs UV-A: UV-A
  Absorbs UV-B: UV-B

## CCCCC(CC)COC(=O)c1ccc(Nc2nc(Nc3ccc(C(=O)NC(C)(C)C)cc3)nc(Nc3ccc(C(=O)OCC(CC)CCCC)cc3)n2)cc1 (stereo not shown) [Uvasorb HEB]
[1]
  Absorbs UV-B: UV-B

## CCCCCCOC(=O)c1ccccc1C(=O)c1ccc(N(CC)CC)cc1O [Uvinul A plus]
[1]
  Absorbs UV-A: UV-A

## CCCCC(CC)COC(=O)C(C#N)=C(c1ccccc1)c1ccccc1 (stereo not shown) [octocrylene, Octocrylene]
[2]; [7]
  SPF values calculated by the Sayre equation: 1.9
[2]; [8]
  SPF values calculated by the Sayre equation: 4
[2]; [9]
  SPF values calculated by the Sayre equation: 13
[2]; [10]
  SPF values calculated by the Sayre equation: 26.5
[2]; UV filter 10% in sun protective cosmetic (Table 20)
  SPF values calculated by the Sayre equation: 36.8
[2]; [11]
  SPF values: 10
[2]; [12]
  SPF values: 25
[2]; [13]
  SPF values: 42
[2]; [14]
  SPF values: 61
[2]; chemical UV filter 10% in sun protective solution (Tables 12-19)
  SPF values: 90
[3]; [15]
  UVA/UVB: 0.22
[3]; [16]
  UVA/UVB: 0.22
[3]; [17]
  UVA/UVB: 0.22
[3]; [18]
  UVA/UVB: 0.22
[3]; [19]
  UVA/UVB: 0.22
[3]; chemical sunscreen, no concentration stated
  ratio UVA/UVB: 0.22
[4]; [20]
  SPF values calculated by Modified Sayre: 1.6
[4]; [21]
  SPF values calculated by Modified Sayre: 2.6
[4]; [22]
  SPF values calculated by Modified Sayre: 4.7
[4]; [23]
  SPF values calculated by Modified Sayre: 7.4
[4]; UV filter 10% in sun protective cosmetic
  SPF values calculated by Modified Sayre: 11.7
[5]; [15]
  Critical wavelength (λC): 342 nm
[5]; [16]
  Critical wavelength (λC): 342 nm
[5]; [17]
  Critical wavelength (λC): 342 nm
[5]; [18]
  Critical wavelength (λC): 342 nm
[5]; [19]
  Critical wavelength (λC): 342 nm
[5]
  critical wavelength: 342 nm

## CCCCC(CC)COC(=O)C=Cc1ccc(OC)cc1 (stereo not shown) [octyl methoxycinnamate, Ethylhexyl methoxycinnamate]
[6]
  Photo-stability to solar imitating UVA+UVB irradiation: HIGHLY unstable

## butylmethoxydibenzoylmethane [avobenzone]
[2]; [7]
  SPF values calculated by the Sayre equation: 1.5
[2]; [8]
  SPF values calculated by the Sayre equation: 2.0
[2]; [9]
  SPF values calculated by the Sayre equation: 6.1
[2]; [10]
  SPF values calculated by the Sayre equation: 32
[2]; [11]
  SPF values: 1.9
[2]; [12]
  SPF values: 3.0
[2]; [13]
  SPF values: 19
[2]; [14]
  SPF values: 297
[6]
  Photo-stability to solar imitating UVA+UVB irradiation: HIGHLY unstable
[4]; [20]
  SPF values calculated by Modified Sayre: 1.5
[4]; [21]
  SPF values calculated by Modified Sayre: 2.1
[4]; [22]
  SPF values calculated by Modified Sayre: 3.2
[4]; [23]
  SPF values calculated by Modified Sayre: 4.4
[5]; [15]
  Critical wavelength (λC): 385 nm
[5]; [16]
  Critical wavelength (λC): 385 nm
[5]; [17]
  Critical wavelength (λC): 385 nm
[5]; [18]
  Critical wavelength (λC): 385 nm
[5]
  critical wavelength: 385 nm
